This is an account of results in ChEMBL document CHEMBL3734669, “Δ(5)-Cholenoyl-amino acids as selective and orally available antagonists of the Eph-ephrin system” (Eur J Med Chem, 2015).

pEC50, pIC50: −log10 of the molar value. Values after ≈ are worked out from the molar mass of the structure shown. Active and inactive are the calls of the source. The rule behind the calls is not given here. A value given as a limit tells only on which side of the number the result lay.

Data set [1] is described as follows: Cmax in mouse at 30 mg/kg, po administered as single dose by HPLC-MS analysis. The class given is ADME, organism-based. More on the design: dose 30 mg/kg, route oral. The following applies: in vivo.
The nature of data set [2]: n-octanol-water distribution coefficient, log D of the compound at pH 7.4 after 4 hrs by shake-flask method. The data set is classed as physicochemical.
A short description of data set [3]: Metabolic stability in mouse plasma assessed as compound remaining at 1 uM after 24 hrs by HPLC-ESI-MS/MS analysis. The note with it: read-out: Stability. The data set is classed as ADME, cell-free.
The nature of data set [4]: AUC (0 to t) in mouse at 30 mg/kg, po administered as single dose by HPLC-MS analysis. The following applies: in vivo. The class given is ADME, organism-based.
The nature of data set [5]: Kinetic solubility of the compound in NaCl solution at 25 deg C after 2 hrs by HPLC-ESI-MS/MS analysis. The class given is physicochemical. The following applies: read-out: Kinetic_solubility.
For data set [6], the target named is T1, G-protein coupled bile acid receptor 1 (Homo sapiens, UniProt Q8TDU6).
T1 sequence (Q8TDU6 whole entry): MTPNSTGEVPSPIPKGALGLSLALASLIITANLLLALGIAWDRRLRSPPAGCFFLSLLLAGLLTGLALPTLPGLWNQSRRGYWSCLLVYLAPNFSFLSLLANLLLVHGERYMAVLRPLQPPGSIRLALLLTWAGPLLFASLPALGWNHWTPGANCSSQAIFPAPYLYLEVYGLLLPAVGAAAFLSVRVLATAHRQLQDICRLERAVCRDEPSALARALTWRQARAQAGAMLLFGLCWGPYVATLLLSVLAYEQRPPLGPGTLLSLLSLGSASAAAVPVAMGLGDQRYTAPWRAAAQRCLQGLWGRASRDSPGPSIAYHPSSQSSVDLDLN
Briefly: Agonist activity at TGR5 (unknown origin) assessed as cAMP level. The class given is functional. On the technique in general: cAMP levels reflect the balance of adenylyl cyclase and phosphodiesterase activity.

The target of data set [7] is T2, Nuclear receptor subfamily 1 group I member 2 (Homo sapiens, UniProt O75469).
T2 sequence (O75469 whole entry): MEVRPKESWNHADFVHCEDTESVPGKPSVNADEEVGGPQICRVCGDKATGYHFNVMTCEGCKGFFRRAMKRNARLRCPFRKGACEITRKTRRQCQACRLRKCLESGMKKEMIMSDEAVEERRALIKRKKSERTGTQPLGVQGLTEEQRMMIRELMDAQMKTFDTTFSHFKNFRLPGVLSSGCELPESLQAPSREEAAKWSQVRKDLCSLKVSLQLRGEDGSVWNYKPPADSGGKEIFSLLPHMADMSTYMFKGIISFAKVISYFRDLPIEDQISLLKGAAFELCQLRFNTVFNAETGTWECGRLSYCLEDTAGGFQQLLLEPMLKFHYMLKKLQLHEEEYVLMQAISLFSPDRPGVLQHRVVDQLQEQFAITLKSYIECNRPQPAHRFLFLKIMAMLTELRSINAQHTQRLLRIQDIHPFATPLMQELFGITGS
As to the kind of experiment: Activation of human recombinant PXR up to 10 uM by alphascreen method.

The nature of data set [8]: Metabolic stability in mouse liver S9 fractions assessed as compound remaining at 1 uM after 1 hr by HPLC-ESI-MS/MS analysis in presence of NADPH regenerating system. The following applies: read-out: Stability. The data set is classed as ADME, subcellular, Liver S9 fraction.
Data set [9] has as its target T3, Ephrin type-A receptor 2 (Homo sapiens, UniProt P29317). As to the kind of experiment: Displacement of biotinylated-ephrin-A1 from EphA2 receptor (unknown origin) up to 100 uM preincubated for 1 hr followed by biotinylated-ephrin-A1-Fc addition measured after 4 hrs by ELISA.
Data set [10] deals with T3, Ephrin type-A receptor 2. As to the kind of experiment: Displacement of biotinylated-ephrin-A1-Fc from EphA2-Fc receptor (unknown origin) preincubated for 1 hr followed by biotinylated-ephrin-A1-Fc addition measured after 4 hrs by ELISA.
Data set [11] can be described thus: Cytotoxicity against human PC3 cells at 10 to 30 uM after 2 hrs by LDH release assay. The class given is cell-based. The note with it: pc-3, 2 h. On the technique in general: LDH leaks from cells whose membrane has failed.

T3 sequence (P29317 whole entry): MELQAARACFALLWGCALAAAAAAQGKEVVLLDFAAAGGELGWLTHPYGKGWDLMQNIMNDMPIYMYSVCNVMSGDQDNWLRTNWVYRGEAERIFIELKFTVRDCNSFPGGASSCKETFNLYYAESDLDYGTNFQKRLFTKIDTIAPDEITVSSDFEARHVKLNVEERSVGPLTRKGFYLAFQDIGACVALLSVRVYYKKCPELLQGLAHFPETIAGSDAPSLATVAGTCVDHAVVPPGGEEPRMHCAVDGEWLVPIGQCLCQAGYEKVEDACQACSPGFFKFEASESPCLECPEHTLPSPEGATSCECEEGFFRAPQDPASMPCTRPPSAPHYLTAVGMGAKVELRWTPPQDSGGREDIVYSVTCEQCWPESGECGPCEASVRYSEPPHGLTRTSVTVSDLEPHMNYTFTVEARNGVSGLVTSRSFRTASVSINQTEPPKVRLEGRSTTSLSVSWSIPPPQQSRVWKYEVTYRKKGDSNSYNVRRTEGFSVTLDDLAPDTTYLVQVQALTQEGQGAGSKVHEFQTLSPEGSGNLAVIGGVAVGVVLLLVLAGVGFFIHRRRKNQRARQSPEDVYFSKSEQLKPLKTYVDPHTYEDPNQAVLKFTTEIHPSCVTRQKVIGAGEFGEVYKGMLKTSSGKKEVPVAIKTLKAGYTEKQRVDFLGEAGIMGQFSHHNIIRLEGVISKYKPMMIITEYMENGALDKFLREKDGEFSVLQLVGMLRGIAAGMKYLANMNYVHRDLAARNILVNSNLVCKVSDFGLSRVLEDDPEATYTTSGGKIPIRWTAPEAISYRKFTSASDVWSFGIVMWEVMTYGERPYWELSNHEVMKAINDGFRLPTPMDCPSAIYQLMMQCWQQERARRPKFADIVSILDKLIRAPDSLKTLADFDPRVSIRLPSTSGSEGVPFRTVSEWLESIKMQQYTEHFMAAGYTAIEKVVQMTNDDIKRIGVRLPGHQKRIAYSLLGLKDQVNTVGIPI

A word on the Cmax: it is the maximum level reached in the sampled fluid or tissue. What is called logD is lipophilicity at a set pH, counting ionised and neutral species. Higher therefore signals higher lipophilicity. In general, AUC(0-t) refers to exposure summed from dosing to a finite time, without extrapolation to infinity. By pEC50 is commonly meant the negative decadic logarithm of the EC50, by convention in mol/L. The molecule `C[C@H](CCC(=O)N[C@H](CC(=O)O)Cc1c[nH]c2ccccc12)[C@H]1CC[C@H]2[C@@H]3CC[C@@H]4C[C@H](O)CC[C@]4(C)[C@H]3CC[C@]12C` came in with a Cmax in data set [1] of 14 nM. In data set [2], this molecule displayed a logD at 4 h of 4.9. In addition, the remaining at 24 h, 1 µM in [3] came out at 98.3%. In [4], this molecule returned an AUC(0-t) of 21.2 ng·h/mL. Further, the solubility kinetic at 2 h in data set [5] was determined as 31.8 µM (≈ 18.3 µg/mL). Further, the pEC50 in [6] was 5.40. Moreover, the Activity in data set [7] is given as 30%. Further, the remaining at 1 h, 1 µM in data set [8] was found to be 56%.

As for `COC(=O)[C@H](Cc1c[nH]c2ccccc12)NC(=O)CC[C@@H](C)[C@H]1CC[C@H]2[C@@H]3CC=C4C[C@@H](O)CC[C@]4(C)[C@H]3CC[C@]12C`, at Ephrin type-A receptor 2 [9], the inhibition entry was “inactive”.

Broadly, the pIC50 is −log10 of the IC50, conventionally taken in molar units. Low readings indicate a high IC50, high ones a low IC50. `C[C@H](CCC(=O)O)[C@H]1CC[C@H]2[C@@H]3CC=C4C[C@@H](O)CC[C@]4(C)[C@H]3CC[C@]12C` showed a pIC50 on Ephrin type-A receptor 2 [10] of 4.40.

Turning to `C[C@H](CCC(=O)N[C@@H](CO)C(=O)O)[C@H]1CC[C@H]2[C@@H]3CC=C4C[C@@H](O)CC[C@]4(C)[C@H]3CC[C@]12C`, at Ephrin type-A receptor 2 [10], the pIC50 is less than 4.00.

The molecule `C[C@H](CCC(=O)N[C@@H](Cc1ccccc1)C(=O)O)[C@H]1CC[C@H]2[C@@H]3CC=C4C[C@@H](O)CC[C@]4(C)[C@H]3CC[C@]12C` had a pIC50 at Ephrin type-A receptor 2 [10] of less than 4.00.

As for `C[C@H](CCC(=O)NCC(=O)O)[C@H]1CC[C@H]2[C@@H]3CC=C4C[C@@H](O)CC[C@]4(C)[C@H]3CC[C@]12C`, at Ephrin type-A receptor 2 [9], the inhibition result was “inactive”.

Consider `CSCC[C@H](NC(=O)CC[C@@H](C)[C@H]1CC[C@H]2[C@@H]3CC=C4C[C@@H](O)CC[C@]4(C)[C@H]3CC[C@]12C)C(=O)O`, for which the inhibition result at Ephrin type-A receptor 2 [9] was “inactive”.

`C[C@H](CCC(=O)N[C@@H](Cc1c[nH]c2ccc(O)cc12)C(=O)O)[C@H]1CC[C@H]2[C@@H]3CC=C4C[C@@H](O)CC[C@]4(C)[C@H]3CC[C@]12C`: the Activity result in [11] is listed as “Non-toxic”.
